Results as given in paper PMC11555678, “Improved Broad Spectrum Antifungal Drug Synergies with Cryptomycin, a Cdc50-Inspired Antifungal Peptide” (ACS Infectious Diseases, 2024).
≈ marks a conversion by molar mass, not a printed value. Where two headings read alike, the source gives them in different places.

Key:
[1] = test system: Cn MRL862; type: cell-based, Cryptococcus neoformans; conditions: RPMI1640, 37 °C, 48 h
Method: (§1) All microdilution assays with fungi were carried out in accordance with CLSI protocols from M27 for yeasts and M38 for filamentous fungi, respectively, unless otherwise specified.[64],[65] Briefly, 96-well plates were charged with RPMI1640 media, with operating volume in the first column, 200 μL, and half operating volume, 100 μL, in the remaining wells. Drug stock solution in DMSO was aliquoted into the first well in each row. Half of the volume in the dosed well was serially diluted 2-fold until column 11. Column 11 was used as the negative growth control, and column 12 was used as the positive growth control. ON yeast cultures in YPD were washed twice in DD-H2O, resuspended in PBS, and adjusted to 5000 cfu/mL in RPMI. The 96-well plate was inoculated with 100 μL aliquots of cell suspension per well. Plates were incubated at 37 °C for 2 days.
(§2) To assess drug synergy, the initial media charged to the plate contained the peptide at twice the final operating concentration; the remaining processing steps were identical to the MIC experiment. Upon addition of 100 μL of inoculant, the final operating concentration was achieved. Control MIC plates were prepared alongside drug synergy plates to account for the day-to-day variability in any individual MIC. FIC index is computed using eq 1. All MIC assays and drug synergy assays were completed with two technical replicates per 96-well plate and a minimum of two biological replicates per drug combination. If a difference in MIC between the two technical replicates on the plate were observed, only the higher concentration was reported as the MIC to reduce the possibility of type 1 error (false positive) [drawing 1] 1

[2] = test system: Cg FKS2 S663P; experiment: Drug synergy (MIC in peptide-supplemented media); type: cell-based, Candida glabrata; conditions: for MIC of antifungal in combination with KKOO / MIC of antifungal in combination with KKOO-NH2: RPMI1640, 37 °C, 48 h
Method: as §1, §2

[3] = test system: Cg FKS1 S629P; experiment: Drug synergy (MIC in peptide-supplemented media); type: cell-based, Candida glabrata; conditions: for MIC of antifungal in combination with KKOO / MIC of antifungal in combination with KKOO-NH2: RPMI1640, 37 °C, 48 h
Method: as §1, §2

[4] = test system: Cn apt1Δ; experiment: microbe, parasite or virus in culture; type: cell-based, Cryptococcus neoformans; conditions: Cryptococcus neoformans, 48 h, 37 °C, 48 h
Method: (§3) Previous studies have shown that modifying microbiological media with salts such as CaCl2 can have a drastic effect on the growth of fungi and their responses to antifungals.[19],[35] In the case of CaCl2, the divalent cation, Ca^2+, is involved in fungal cell stress response. To understand how the peptide activity may involve calcium and stress response, the MICs of KKOO, KKOO-NH2, FLC, and CAS were assessed as a function of the calcium concentration in liquid YPD media. It was observed that calcium enrichment completely desensitized the wild-type strain to KKOO and KKOO-NH2, Tables 7 and 8, respectively. Effects of calcium enrichment on the susceptibility of Cryptococcus to CAS similar to literature values were recorded, Supporting Information, Table S7.[35]
as §1

[5] = test system: Cn crm1Δ; experiment: microbe, parasite or virus in culture; type: cell-based, Cryptococcus neoformans; conditions: Cryptococcus neoformans, 48 h, 37 °C
Method: as §3, §1

[6] = test system: Cn Crm1-oe; experiment: microbe, parasite or virus in culture; type: cell-based, Cryptococcus neoformans; conditions: Cryptococcus neoformans, CRM1OE, 48 h, 37 °C
Method: as §3, §1

[7] = test system: C. albicans SC5413; type: cell-based, Candida albicans; conditions: RPMI1640, 37 °C, 48 h; for MIC of antifungal in combination with KKOO: azole MICs unclear (intermediate phenotype); for MIC of antifungal in combination with KKOO-NH2: azole MICs could not be determined (intermediate phenotype)
Method: as §1, §2

[8] = test system: C. glabrata 2001; experiment: microbe, parasite or virus in culture; type: cell-based, Candida glabrata; conditions: Nakaseomyces glabratus, 2001; compound alone; RPMI1640, 37 °C, 48 h; read-out: MIC
Procedure, shortened: (§4)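 Yeasts were grown overnight in YPD, washed twice in water, taken up in PBS and diluted to 5000 cfu/mL in RPMI. They were then added to plates holding 2-fold serial drug dilutions in RPMI1640 and incubated at 37 °C for 2 days.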

[9] = test system: C. glabrata FKS1-S629P; experiment: microbe, parasite or virus in culture; type: cell-based, Candida glabrata; conditions: Nakaseomyces glabratus, FKS1S629P, 48 h
Procedure, shortened: as §4

[10] = test system: C. glabrata FKS2-S663P; experiment: microbe, parasite or virus in culture; type: cell-based, Candida glabrata; conditions: Nakaseomyces glabratus, FKS2S663P, 48 h
Procedure, shortened: as §4

[11] = test system: C. auris B11245; type: cell-based, Candida auris; conditions: for MIC of antifungal in combination with KKOO / MIC of antifungal in combination with KKOO-NH2: RPMI1640, 37 °C, 48 h, CAS: paradoxical growth; for MIC of antifungal in combination with KKOO: MIC = <20% growth; for MIC of antifungal in combination with KKOO-NH2: MIC = well with <20% growth
Method: as §1, §2

[12] = test system: C. glabrata 2001; type: cell-based, Candida glabrata; conditions: for MIC of antifungal in combination with KKOO / MIC of antifungal in combination with KKOO-NH2: RPMI1640, 37 °C, 48 h
Method: as §1, §2

[13] = test system: C. auris B11245; experiment: microbe, parasite or virus in culture; type: cell-based, Candida auris; conditions: Candidozyma auris, B11245; compound alone; RPMI1640, 37 °C, 48 h; * = paradoxical growth observed (CAS); read-out: MIC
Procedure, shortened: as §4

[14] = test system: A. fumigatus AF293; experiment: microbe, parasite or virus in culture; type: cell-based, Aspergillus fumigatus; conditions: Aspergillus fumigatus, AF293, 48 h
[15] = in the presence of 2 μg/mL KKOO-NH2

CC[C@H](C)C[C@H](C)CCCCCCCCC(=O)N[C@H]1C[C@@H](O)[C@@H](NCCN)NC(=O)[C@@H]2[C@@H](O)CCN2C(=O)[C@H]([C@H](O)CCN)NC(=O)[C@H]([C@H](O)[C@@H](O)c2ccc(O)cc2)NC(=O)[C@@H]2C[C@@H](O)CN2C(=O)[C@H]([C@@H](C)O)NC1=O [CAS, caspofungin]
MIC of antifungal in combination with KKOO ([1]; +0 μg/mL KKOO (control)): 16 µg/mL
MIC of antifungal in combination with KKOO-NH2 ([1]; +0 μg/mL KKOO-NH2 (control)): 16 µg/mL
MIC of antifungal in combination with KKOO-NH2 ([1]; +1 μg/mL KKOO-NH2): 16 µg/mL
MIC of antifungal in combination with KKOO ([1]; +1 μg/mL KKOO): 16 µg/mL
MIC of antifungal in combination with KKOO-NH2 ([1]; +2 μg/mL KKOO-NH2): 8 µg/mL
MIC of antifungal in combination with KKOO ([1]; +2 μg/mL KKOO): 16 µg/mL
MIC of antifungal in combination with KKOO-NH2 ([1]; +4 μg/mL KKOO-NH2): 4 µg/mL
MIC of antifungal in combination with KKOO ([1]; +4 μg/mL KKOO): 8 µg/mL
MIC of antifungal in combination with KKOO ([2]; +0 μg/mL KKOO (control)): 4 µg/mL
MIC of antifungal in combination with KKOO-NH2 ([2]; +0 μg/mL KKOO-NH2 (control)): 4 µg/mL
MIC of antifungal in combination with KKOO-NH2 ([2]; +1 μg/mL KKOO-NH2): 2 µg/mL
MIC of antifungal in combination with KKOO ([2]; +1 μg/mL KKOO): 2 µg/mL
MIC of antifungal in combination with KKOO-NH2 ([2]; +2 μg/mL KKOO-NH2): 1 µg/mL
MIC of antifungal in combination with KKOO ([2]; +2 μg/mL KKOO): 2 µg/mL
MIC of antifungal in combination with KKOO-NH2 ([2]; +4 μg/mL KKOO-NH2): 1 µg/mL
MIC of antifungal in combination with KKOO ([2]; +4 μg/mL KKOO): 1 µg/mL
reduction of MIC of antifungal [2, 15]: 4 fold
MIC of antifungal in combination with KKOO ([3]; +0 μg/mL KKOO (control)): 1 µg/mL
MIC of antifungal in combination with KKOO-NH2 ([3]; +0 μg/mL KKOO-NH2 (control)): 1 µg/mL
MIC of antifungal in combination with KKOO-NH2 ([3]; +1 μg/mL KKOO-NH2): 0.5 µg/mL
MIC of antifungal in combination with KKOO ([3]; +1 μg/mL KKOO): 0.5 µg/mL
MIC of antifungal in combination with KKOO-NH2 ([3]; +2 μg/mL KKOO-NH2): 0.062 µg/mL
MIC of antifungal in combination with KKOO ([3]; +2 μg/mL KKOO): 0.125 µg/mL
MIC of antifungal in combination with KKOO-NH2 ([3]; +4 μg/mL KKOO-NH2): 0.004 µg/mL
MIC of antifungal in combination with KKOO ([3]; +4 μg/mL KKOO): 0.008 µg/mL
reduction of MIC of antifungal [3, 15]: 16 fold
MIC ([4]; YPD + 0 mM Ca2+): 8 µg/mL
MIC ([4]; YPD + 2.5 mM Ca2+): 16 µg/mL
MIC ([4]; YPD + 5 mM Ca2+): 32 µg/mL
MIC ([4]; YPD + 10 mM Ca2+): 32 µg/mL
MIC ([4]; YPD + 20 mM Ca2+): 64 µg/mL
MIC ([5]; YPD + 0 mM Ca2+): 8 µg/mL
MIC ([5]; YPD + 2.5 mM Ca2+): 32 µg/mL
MIC ([5]; YPD + 5 mM Ca2+): 32 µg/mL
MIC ([5]; YPD + 10 mM Ca2+): 64 µg/mL
MIC ([5]; YPD + 20 mM Ca2+): > 128 µg/mL
MIC ([6]; YPD + 0 mM Ca2+): 8 µg/mL
MIC ([6]; YPD + 2.5 mM Ca2+): 32 µg/mL
MIC ([6]; YPD + 5 mM Ca2+): 32 µg/mL
MIC ([6]; YPD + 10 mM Ca2+): 128 µg/mL
MIC ([6]; YPD + 20 mM Ca2+): 128 µg/mL
MIC of antifungal in combination with KKOO ([7]; +0 μg/mL KKOO (control)): 0.25 µg/mL
MIC of antifungal in combination with KKOO-NH2 ([7]; +0 μg/mL KKOO-NH2 (control)): 0.25 µg/mL
MIC of antifungal in combination with KKOO-NH2 ([7]; +1 μg/mL KKOO-NH2): 0.5 µg/mL
MIC of antifungal in combination with KKOO ([7]; +1 μg/mL KKOO): 0.5 µg/mL
MIC of antifungal in combination with KKOO-NH2 ([7]; +2 μg/mL KKOO-NH2): 0.062 µg/mL
MIC of antifungal in combination with KKOO ([7]; +2 μg/mL KKOO): 0.125 µg/mL
MIC of antifungal in combination with KKOO-NH2 ([7]; +4 μg/mL KKOO-NH2): 0.008 µg/mL
MIC of antifungal in combination with KKOO ([7]; +4 μg/mL KKOO): 0.556 µg/mL
MIC of antifungal in combination with KKOO ([7]; +8 μg/mL KKOO): 0.008 µg/mL
MIC [8]: 0.5 µg/mL (≈ 0.457 µM)
MIC [9]: 2 µg/mL (≈ 1.83 µM)
MIC [10]: 4 µg/mL (≈ 3.66 µM)
MIC of antifungal in combination with KKOO ([11]; +0 μg/mL KKOO (control)): 1 µg/mL
MIC of antifungal in combination with KKOO-NH2 ([11]; +0 μg/mL KKOO-NH2 (control)): 1 µg/mL
MIC of antifungal in combination with KKOO-NH2 ([11]; +1 μg/mL KKOO-NH2): 0.5 µg/mL
MIC of antifungal in combination with KKOO ([11]; +1 μg/mL KKOO): 1 µg/mL
MIC of antifungal in combination with KKOO-NH2 ([11]; +2 μg/mL KKOO-NH2): 0.125 µg/mL
MIC of antifungal in combination with KKOO ([11]; +2 μg/mL KKOO): 0.25 µg/mL
MIC of antifungal in combination with KKOO-NH2 ([11]; +4 μg/mL KKOO-NH2): 0.031 µg/mL
MIC of antifungal in combination with KKOO ([11]; +4 μg/mL KKOO): 0.031 µg/mL
reduction of MIC of antifungal ([11]; in the presence of 2 μg/mL KKOO-NH2, 48 h): 8 fold
MIC of antifungal in combination with KKOO ([12]; +0 μg/mL KKOO (control)): 0.5 µg/mL
MIC of antifungal in combination with KKOO-NH2 ([12]; +0 μg/mL KKOO-NH2 (control)): 0.5 µg/mL
MIC of antifungal in combination with KKOO-NH2 ([12]; +1 μg/mL KKOO-NH2): 0.5 µg/mL
MIC of antifungal in combination with KKOO ([12]; +1 μg/mL KKOO): 0.5 µg/mL
MIC of antifungal in combination with KKOO-NH2 ([12]; +2 μg/mL KKOO-NH2): 0.125 µg/mL
MIC of antifungal in combination with KKOO ([12]; +2 μg/mL KKOO): 0.25 µg/mL
MIC of antifungal in combination with KKOO-NH2 ([12]; +4 μg/mL KKOO-NH2): 0.004 µg/mL
MIC of antifungal in combination with KKOO ([12]; +4 μg/mL KKOO): 0.016 µg/mL
MIC of antifungal in combination with KKOO ([12]; +8 μg/mL KKOO): 0.556 µg/mL
reduction of MIC of antifungal [12, 15]: 4 fold
MIC [13]: 1 µg/mL (≈ 0.915 µM)
MIC [14]: 0.125 µg/mL (≈ 0.114 µM)
